Experiments:
[1] = Solubility of solid forms of compound (I)
[2] = tested on: GABAA (γ-aminobutyric acidA) receptors; test: GABAA receptor ligand activity; type: binding; conditions: amorphous form, stated to be like crystalline compound (I)
[3] = tested on: GABAA (γ-aminobutyric acidA) receptors; conditions: as described in PCT/EP2006/063243 and U.S. 60/692866; cited from earlier work

Q: With `CC(=O)N(C)c1cc(-c2ccnc3c(C(=O)c4cccs4)cnn23)ccc1F` [crystalline form of compound (I), N-{2-Fluoro-5-[3-(thiophene-2-carbonyl)-pyrazolo[1,5-a]pyrimidin-7-yl]-phenyl}-N-methyl-acetamide] as the molecule, how does the solubility ([1]; crystalline form, qualitative statement) read?
A: The solubility was “very low soluble”.

Q: What does the source list for `CC(=O)N(C)c1cc(-c2ccnc3c(C(=O)c4cccs4)cnn23)ccc1F` [amorphous form, N-{2-Fluoro-5-[3-(thiophene-2-carbonyl)-pyrazolo[1,5-a]pyrimidin-7-yl]-phenyl}-N-methyl-acetamide]?
A: solubility of the amorphous form relative to crystalline product ([1]; amorphous versus crystalline product): about twice as high; ligand of GABAA [2]: potent ligand

Q: For `CC(=O)N(C)c1cc(-c2ccnc3c(C(=O)c4cccs4)cnn23)ccc1F` [compound (I), N-{2-Fluoro-5-[3-(thiophene-2-carbonyl)-pyrazolo[1,5-a]pyrimidin-7-yl]-phenyl}-N-methyl-acetamide], which “ligand of GABAA receptors” value [3] is on record?
A: Its value is “potent ligand”.
